# Experimental data published in patent publication US9226500B2, “Pesticidal compositions and processes related thereto” (Dow AgroSciences LLC, priority 2012, dated 2016).
# How the values were obtained:
# [1] = system: Cabbage Looper (Trichoplusia ni); assay: Bioassay on Cabbage Looper (CL), 128-well diet tray assay; type: in vivo; conditions: 168 h, percent mortality of second instar larvae, 50 μg/cm^2 on artificial diet, five to seven days, 25° C., read-out: CL Rating
# Protocol: Certain molecules disclosed in this document were tested against BAW, CEW and CL using procedures described in the following examples. In the reporting of the results, the “BAW & CEW & CL Rating Table” was used (See Table Section).
# Bioassays on CL (Trichoplusia ni)
# Bioassays on CL were conducted using a 128-well diet tray assay. One to five second instar CL larvae were placed in each well (3 mL) of the diet tray that had been previously filled with 1 mL of artificial diet to which 50 μg/cm^2 of the test compound (dissolved in 50 μL of 90:10 acetone-water mixture) had been applied (to each of eight wells) and then allowed to dry. Trays were covered with a clear self-adhesive cover, and held at 25° C., 14:10 light-dark for five to seven days. Percent mortality was recorded for the larvae in each well; activity in the eight wells was then averaged.
# “Table 4: Assay Results Part 2” (See Table Section).
# [2] = system: Beet Armyworm (Spodoptera exigua); assay: Bioassay on Beet Armyworm (BAW), 128-well diet tray assay; type: in vivo; conditions: for pest or weed control at 50 µg/cm2, 50 µg/cm2: Spodoptera exigua, 168 h, percent mortality of second instar larvae, 50 μg/cm^2 on artificial diet, five to seven days, 25° C., read-out: BAW Rating; for BAW Rating: Table 3, Assays Results Part 1
SMILES,"pest or weed control at 50 µg/cm2, 50 µg/cm2 [1] [%]","pest or weed control at 50 µg/cm2, 50 µg/cm2 [2] [%]",BAW Rating [2]
C[C@@H](NC(=O)c1ccc(/C=C/C(c2cc(Br)cc(Br)c2)C(F)(F)F)cc1Br)C(=O)NCC(F)(F)F (stereo partly drawn) [Compound F19],50 to 100,50 to 100,
C[C@@H](NC(=O)c1ccc(/C=C/C(c2cc(F)cc(C(F)(F)F)c2)C(F)(F)F)cc1Br)C(=O)NCC(F)(F)F (stereo partly drawn) [Compound F24],50 to 100,50 to 100,
Cc1cc(/C=C/C(c2cc(Br)cc(Br)c2)C(F)(F)F)ccc1C(=O)N[C@H](C)C(=O)NCC(F)(F)F (stereo partly drawn) [Compound F17],50 to 100,50 to 100,
C[C@@H](NC(=O)c1ccc(/C=C/C(c2cc(Cl)c(Cl)c(Cl)c2)C(F)(F)F)cc1C(F)(F)F)C(=S)NCC(F)(F)F (stereo partly drawn) [Compound F28],50 to 100,50 to 100,
CCC(NC(=O)c1ccc(/C=C/C(c2cc(Cl)c(Cl)c(Cl)c2)C(F)(F)F)cc1Cl)C(=O)NCC(F)(F)F (stereo not drawn) [Compound F23A],50 to 100,50 to 100,
Cc1cc(/C=C/C(c2cc(Cl)c(Cl)c(Cl)c2)C(F)(F)F)ccc1C(=O)N[C@H](C)C(=O)NCC(F)(F)F (stereo partly drawn) [Compound F7],50 to 100,50 to 100,
Cc1cc(/C=C/C(c2cc(Cl)c(Cl)c(Cl)c2)C(F)(F)F)ccc1C(=O)N[C@H](C)C(=S)NCC(F)(F)F (stereo partly drawn) [Compound F26],50 to 100,50 to 100,
C[C@H](NC(=O)c1ccc(/C=C/C(c2cc(Cl)c(Cl)c(Cl)c2)C(F)(F)F)cc1Br)C(=O)NCC(F)(F)F (stereo partly drawn) [Compound F5],50 to 100,50 to 100,
Cc1cc(/C=C/C(c2cc(Cl)c(Cl)c(Cl)c2)C(F)(F)F)ccc1C(=O)NC(C)(C)C(=S)NCC(F)(F)F (stereo not drawn) [Compound F29],50 to 100,50 to 100,
CCC(NC(=O)c1ccc(/C=C/C(c2cc(Cl)c(Cl)c(Cl)c2)C(F)(F)F)cc1C)C(=O)NCC(F)(F)F (stereo not drawn) [Compound F15A],50 to 100,50 to 100,
C[C@@H](NC(=O)c1ccc(/C=C/C(c2cccc(C(F)(F)F)c2)C(F)(F)F)cc1Br)C(=O)NCC(F)(F)F (stereo partly drawn) [Compound F22],50 to 100,50 to 100,
"C[C@@H](NC(=O)c1ccc(/C=C/[C@@H](c2cc(Cl)c(Cl)c(Cl)c2)C(F)(F)F)cc1C(F)(F)F)C(=O)NCC(F)(F)F [Compound F20B, N—((R)-1-Oxo-1-((2,2,2-trifluoroethyl)amino)propan-2-yl)-4-((E)-4,4,4-trifluoro-3-(3,4,5-trichlorophenyl)but-1-en-1-yl)-2-(trifluoromethyl)benzamide]",50 to 100,50 to 100,
CC[C@H](NC(=O)c1ccc(/C=C/C(c2cc(Cl)c(Cl)c(Cl)c2)C(F)(F)F)cc1C)C(=O)NCC(F)(F)F (stereo partly drawn) [Compound F15],50 to 100,50 to 100,
"Cc1cc(/C=C/C(c2cc(Cl)c(Cl)c(Cl)c2)C(F)(F)F)ccc1C(=S)NC(C)(C)C(=S)NCC(F)(F)F (stereo not drawn) [Compound F31, (E)-2-Methyl-N-(2-methyl-1-thioxo-1-(2,2,2-trifluoroethylamino)propan-2-yl)-4-(4,4,4-trifluoro-3-(3,4,5-trichlorophenyl)but-1-enyl)benzothioamide]",50 to 100,50 to 100,
CCC(NC(=O)c1ccc(/C=C/C(c2cc(Cl)c(Cl)c(Cl)c2)C(F)(F)F)cc1C(F)(F)F)C(=O)NCC(F)(F)F (stereo not drawn) [Compound F16A],50 to 100,50 to 100,
Cc1cc(/C=C/C(c2cc(Cl)c(Cl)c(Cl)c2)C(F)(F)F)ccc1C(=O)NC(C)(C)C(=O)NCC(F)(F)F (stereo not drawn) [Compound F3],50 to 100,50 to 100,
Cc1cc(/C=C/C(c2cc(Cl)c(Cl)c(Cl)c2)C(F)(F)F)ccc1C(=O)N[C@@H](C)C(=O)NCC(F)(F)F (stereo partly drawn) [Compound F9],50 to 100,50 to 100,
C[C@@H](NC(=O)c1ccc(/C=C\C(c2cc(Cl)c(Cl)c(Cl)c2)C(F)(F)F)cc1C(F)(F)F)C(=O)NCC(F)(F)F (stereo partly drawn) [Compound F20C],50 to 100,50 to 100,
CC[C@H](NC(=O)c1ccc(/C=C/C(c2cc(Cl)c(Cl)c(Cl)c2)C(F)(F)F)cc1Cl)C(=O)NCC(F)(F)F (stereo partly drawn) [Compound F23],50 to 100,,
Cc1cc(/C=C/C(c2cc(Cl)cc(Cl)c2)C(F)(F)F)ccc1C(=O)NCC(=O)NC1CS(=O)(=O)C1 (stereo not drawn) [AC81],,,A (50-100)
CC(C)(C)OC(=O)CNC(=O)c1ccc(/C=C/C(c2cc(Cl)c(Cl)c(Cl)c2)C(F)(F)F)cc1Br (stereo not drawn) [AC58],,,A (50-100)
O=C(NC1CSC1)c1ccc(/C=C/C(c2cc(Cl)c(Cl)c(Cl)c2)C(F)(F)F)cc1Br (stereo not drawn) [AC32],,,A (50-100)
"CN(C)C(=O)NCc1ccc(/C=C/C(c2cc(Cl)c(Cl)c(Cl)c2)C(F)(F)F)cc1Cl (stereo not drawn) [CC36, (E)-3-(2-Chloro-4-(4,4,4-trifluoro-3-(3,4,5-trichlorophenyl)but-1-en-1-yl)benzyl)-1,1-dimethylurea]",,,A (50-100)
Fc1ccc(C(/C=C/c2ccc(-n3cncn3)cc2)C(F)(F)F)cc1 (stereo not drawn) [DC7],,,A (50-100)
